Test results from patent US20110044938A1 (NYCOMED GMBH, priority 2006, published 2011).

Assays:
[1] = test system: RKO (RKOp27) human colon adenocarcinoma cells; test: Alamar Blue cell viability assay, anti-proliferative/cytotoxic activity on proliferating RKO subclones; format: cell-based; conditions: RKOp27, 72 h, RKO p27 uninduced (proliferating) cells, value = class bound given in Table A, read-out: −logIC50 RKO p27 uninduced (proliferating) (converted)
Procedure: The anti-proliferative/cytotoxic activity of the compounds described herein, can be tested on subclones of RKO (RKOp27) human colon adenocarcinoma cells (Schmidt et al., Oncogene 19, 2423-2429; 2000) using the Alamar Blue cell viability assay (described in O'Brien et al. Eur J Biochem 267, 5421-5426, 2000). The compounds are dissolved as 20 mM solutions in dimethylsulfoxide (DMSO) and subsequently diluted in semi-logarithmic steps. DMSO dilutions are further diluted 1:100 into Dulbecco's modified Eagle's medium (DMEM) containing 10% fetal calf serum to a final concentration twice as much as the final concentration in the test. RKO subclones are seeded into 96 well flat bottom plates at a density of 5000 cells per well in a volume of 50 μl per well. 24 hours after seeding the 50 μl each of the compound dilutions in DMEM medium are added into each well of the 96 Well plate. Each compound dilution is tested as quadruplicates. Wells containing untreated control cells are filled with 50 μl DMEM medium containing 1% DMSO. The cells are then incubated with the substances for 72 hours at 37° C. in a hunified atmosphere containing 5% carbon dioxide. To determine the viability of the cells, 10 μl of an Alamar Blue solution (Biosource) are added and the fluorescence is measured at an extinction of 544 nm and an emission of 590 nm. For the calculation of the cell viability the emission value from untreated cells is set as 100% viability and the emission rates of treated cells are set in relation to the values of untreated cells. Viabilities are expressed as % values.
The corresponding IC50 values of the compounds for anti-proliferative/cytotoxic activity are determined from the concentration-effect curves.
(§1) Representative −log IC50 [mol/l] values for anti-proliferation/cytotoxicity determined in the mentioned assays follow from the following table A, in which the numbers of the compound correspond to the numbers of the examples.

[2] = test system: subclones of RKO colon adenocarcinoma cells (RKOp27 or RKOp21) arrested by Ponasterone A; test: Alamar Blue cell viability assay, cell cycle specific mode of action: cells arrested by ectopic p27Kip1 induced by Ponasterone A versus proliferating cells; format: cell-based; conditions: Homo sapiens, RKO p27 induced (arrested) cells, 10 μM Ponasterone A, 72 hours, value = class bound given in Table A, read-out: −logIC50 RKO p27 induced (arrested) (converted)
Procedure: To determine the cell cycle specific mode of action, subclones of RKO colon adenocarcinoma cells (RKOp27 or RKOp21 as described by Schmidt et al. in Oncogene 19, 2423-2429; 2000) are seeded into 96 well flat bottom plates at a density of 15000 cells per well in a volume of 50 μl per well in DMEM growth medium with 10% FCS containing 10 μM Ponasterone A. 24 hours after seeding the 50 μl each of the compound dilutions in DMEM medium are added into each well of the 96 Well plate. Each compound dilution is tested as quadruplicates. Wells containing untreated control cells are filled with 50 μl DMEM medium containing 1% DMSO. The cells are then incubated with the substances for 72 hours at 37° C. in a humidified athmosphere containing 5% carbon dioxide. To determine the viability of the cells, 10 μl of an Alamar Blue solution (Biosource) are added and the fluorescence was measured at an extinction of 544 nm and an emission of 590 nm. For the calculation of the cell viability the emission value from untreated cells is set as 100% viability and the emission rates of treated cells are set in relation to the values of untreated cells. Viabilities are expressed as % values. Viability is compared of proliferating cells grown in the absence of the inducer Ponasterone A, versus viability of cells arrested by the expression of ectopic p27Kip1 induced by Ponasterone A.
as §1

Row | Compound | IC50 [1] [nM] | IC50 [2] [nM]
1 | CCOc1ccccc1CCC(=O)Nc1sc2c(c1C#N)CCC(COC(=O)NCc1cccnc1)C2 (stereo not shown) [Example 175, Pyridin-3-ylmethyl-carbamic acid 3-cyano-2-[3-(2-ethoxy-phenyl)-propanoylamino]-4,5,6,7-tetrahydro-benzo[b]thiophen-6-ylmethyl ester] | ≤ 501 | ≥ 100000
2 | CCOc1ccccc1CCC(=O)Nc1sc2c(c1C#N)CCC(OC(=O)NCc1csc(C)n1)C2 (stereo not shown) [Example 254, (2-Methyl-thiazol-4-ylmethyl)-carbamic acid 3-cyano-2-[3-(2-ethoxy-phenyl)-propanoylamino]-4,5,6,7-tetrahydro-benzo[b]thiophen-6-yl ester] | ≤ 501 | ≥ 100000
3 | Cc1cc(CNC(=O)OCC2CCc3c(sc(NC(=O)CCc4cccnc4)c3C#N)C2)on1 (stereo not shown) [Example 257, (3-Methyl-isoxazol-5-ylmethyl)-carbamic acid 3-cyano-2-(3-pyridin-3-yl-propanoylamino)-4,5,6,7-tetrahydro-benzo[b]thiophen-6-ylmethyl ester] | 501 to 2000 | ≥ 100000
4 | N#Cc1c(NC(=O)/C=C/c2cccnc2)sc2c1CC[C@@H](COC(=O)N1CCC(O)CC1)C2 [Example 114b, 4-Hydroxy-piperidine-1-carboxylic acid (R)-3-cyano-2-((E)-3-pyridin-3-yl-allanoylamino)-4,5,6,7-tetrahydro-benzo[b]thiophen-6-ylmethyl ester] | ≤ 501 | ≥ 100000
5 | Cc1ccncc1/C=C/C(=O)Nc1sc2c(c1C#N)CCC(COC(=O)N1CCC(O)CC1)C2 (stereo not shown) [Example 133, 4-Hydroxy-piperidine-1-carboxylic acid 3-cyano-2-[(E)-3-(4-methyl-pyridin-3-yl)-allanoylamino]-4,5,6,7-tetrahydro-benzo[b]thiophen-6-ylmethyl ester] | ≤ 501 | ≥ 100000
6 | CCn1nccc1CNC(=O)OCC1CCc2c(sc(NC(=O)CC(C)c3cccc(OC)c3)c2C#N)C1 (stereo not shown) [Example 341, (2-Ethyl-2H-pyrazol-3-ylmethyl)-carbamic acid 3-cyano-2-[3-(3-methoxy-phenyl)-butanoylamino]-4,5,6,7-tetrahydro-benzo[b] thiophen-6-ylmethyl ester] | 501 to 2000 | ≥ 50100
7 | CC(CC(=O)Nc1sc2c(c1C#N)CCC(OC(=O)NCc1ccncc1)C2)c1ccccc1 (stereo not shown) [Example 289, Pyridin-4-ylmethyl-carbamic acid 3-cyano-2-(3-phenyl-butanoylamino)-4,5,6,7-tetrahydro-benzo[b] thiophen-6-yl ester] | ≤ 501 | ≥ 10000
8 | COc1cccc(C(C)CC(=O)Nc2sc3c(c2C#N)CCC(COC(=O)NCc2cncn2C)C3)c1 (stereo not shown) [Example 331, (3-Methyl-3H-imidazol-4-ylmethyl)-carbamic acid 3-cyano-2-[3-(3-methoxy-phenyl)-butanoylamino]-4,5,6,7-tetrahydro-benzo[b] thiophen-6-ylmethyl ester] | 501 to 2000 | ≥ 10000
9 | CC(CC(=O)Nc1sc2c(c1C#N)CCC(OC(=O)OCc1cncs1)C2)c1cccnc1 (stereo not shown) [Example 356, Carbonic acid 3-cyano-2-(3-pyridin-3-yl-butanoylamino)-4,5,6,7-tetrahydro-benzo[b] thiophen-6-yl ester thiazol-5-ylmethyl ester] | 501 to 2000 | ≥ 100000
10 | CNC(=O)OC1CCc2c(sc(NC(=O)/C=C/c3cccnc3)c2C#N)C1 (stereo not shown) [Example 20, Methyl-carbamic acid 3-cyano-2-((E)-3-pyridin-3-yl-allanoylamino)-4,5,6,7-tetrahydro-benzo[b]thiophen-6-yl ester] | ≤ 501 | ≥ 100000
11 | CN(C)C(=O)OC[C@H]1CCc2c(sc(NC(=O)/C=C/c3cccnc3)c2C#N)C1 [Example 74a, Dimethyl-carbamic acid (S)-3-cyano-2-((E)-3-pyridin-3-yl-allanoylamino)-4,5,6,7-tetrahydro-benzo[b]thiophen-6-ylmethyl ester] | ≤ 501 | ≥ 100000
